Here are results for 17 compounds from ChEMBL document CHEMBL3352415, “Synthesis and biological evaluation of novel thiadiazole amides as potent Cdc25B and PTP1B inhibitors” (Bioorg Med Chem Lett, 2014).

The term IC50 denotes the concentration that gives 50% inhibition. By inhibition is commonly meant how much of the control response was suppressed.

In test [1] the target is T1, Tyrosine-protein phosphatase non-receptor type 11 (Homo sapiens, UniProt Q06124).
T1 sequence (Q06124 whole entry): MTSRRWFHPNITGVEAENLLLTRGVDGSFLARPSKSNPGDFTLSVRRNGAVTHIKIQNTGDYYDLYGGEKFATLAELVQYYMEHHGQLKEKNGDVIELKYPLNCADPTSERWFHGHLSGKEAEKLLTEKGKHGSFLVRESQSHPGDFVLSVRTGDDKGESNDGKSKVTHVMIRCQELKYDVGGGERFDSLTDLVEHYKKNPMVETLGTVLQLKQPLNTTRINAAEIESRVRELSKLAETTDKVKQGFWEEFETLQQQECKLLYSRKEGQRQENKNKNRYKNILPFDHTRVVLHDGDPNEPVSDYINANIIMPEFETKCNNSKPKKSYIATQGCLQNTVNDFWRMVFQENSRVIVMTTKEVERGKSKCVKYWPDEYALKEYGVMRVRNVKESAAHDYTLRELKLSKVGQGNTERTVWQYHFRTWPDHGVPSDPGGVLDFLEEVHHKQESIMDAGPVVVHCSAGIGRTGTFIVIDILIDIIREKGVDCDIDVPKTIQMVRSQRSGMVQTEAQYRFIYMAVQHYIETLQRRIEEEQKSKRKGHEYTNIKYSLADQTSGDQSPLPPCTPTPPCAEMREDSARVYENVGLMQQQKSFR
The experiment in a line: Inhibition of SHP2 (unknown origin).

In test [2] the target is T2, Tyrosine-protein phosphatase non-receptor type 2 (Homo sapiens, UniProt P17706).
T2 sequence (P17706 whole entry): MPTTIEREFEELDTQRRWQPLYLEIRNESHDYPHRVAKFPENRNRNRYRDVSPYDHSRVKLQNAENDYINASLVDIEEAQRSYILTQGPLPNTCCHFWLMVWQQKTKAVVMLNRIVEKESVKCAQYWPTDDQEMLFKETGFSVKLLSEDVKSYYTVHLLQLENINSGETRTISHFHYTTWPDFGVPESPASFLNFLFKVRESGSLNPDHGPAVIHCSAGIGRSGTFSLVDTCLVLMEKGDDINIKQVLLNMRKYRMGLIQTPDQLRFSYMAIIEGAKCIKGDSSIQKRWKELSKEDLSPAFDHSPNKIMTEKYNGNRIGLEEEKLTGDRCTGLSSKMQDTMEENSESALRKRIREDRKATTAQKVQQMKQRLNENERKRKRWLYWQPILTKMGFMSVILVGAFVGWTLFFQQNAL
As to the kind of experiment: Inhibition of TCPTP (unknown origin).

The target in test [3] is T3, M-phase inducer phosphatase 2 (Homo sapiens, UniProt P30305).
T3 sequence (P30305 whole entry): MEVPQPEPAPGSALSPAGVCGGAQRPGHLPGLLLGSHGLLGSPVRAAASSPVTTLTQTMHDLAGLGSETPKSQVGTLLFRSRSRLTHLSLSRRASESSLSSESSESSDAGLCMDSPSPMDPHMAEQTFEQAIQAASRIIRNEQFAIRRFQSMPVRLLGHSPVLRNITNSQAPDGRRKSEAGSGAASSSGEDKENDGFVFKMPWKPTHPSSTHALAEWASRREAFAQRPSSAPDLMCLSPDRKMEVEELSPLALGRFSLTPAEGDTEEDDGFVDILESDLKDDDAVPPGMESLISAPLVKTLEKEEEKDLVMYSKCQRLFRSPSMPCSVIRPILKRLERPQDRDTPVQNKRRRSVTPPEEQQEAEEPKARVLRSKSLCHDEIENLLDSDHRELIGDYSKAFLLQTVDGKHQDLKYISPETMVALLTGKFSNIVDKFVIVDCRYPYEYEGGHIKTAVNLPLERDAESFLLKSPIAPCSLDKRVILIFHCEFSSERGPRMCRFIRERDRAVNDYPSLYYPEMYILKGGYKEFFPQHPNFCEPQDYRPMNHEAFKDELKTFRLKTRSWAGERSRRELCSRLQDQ
As to the kind of experiment: Inhibition of Cdc25B (unknown origin).

Test [4] addresses T4, M-phase inducer phosphatase 2 (Homo sapiens) (UniProt P30305).
T4 sequence (whole entry): T3 sequence (P30305 whole entry)
As to the kind of experiment: Inhibition of Cdc25B (unknown origin) at 5 ug/ml.

Test [5] deals with T5, Tyrosine-protein phosphatase non-receptor type 1 (Homo sapiens, UniProt P18031).
T5 sequence (P18031 whole entry): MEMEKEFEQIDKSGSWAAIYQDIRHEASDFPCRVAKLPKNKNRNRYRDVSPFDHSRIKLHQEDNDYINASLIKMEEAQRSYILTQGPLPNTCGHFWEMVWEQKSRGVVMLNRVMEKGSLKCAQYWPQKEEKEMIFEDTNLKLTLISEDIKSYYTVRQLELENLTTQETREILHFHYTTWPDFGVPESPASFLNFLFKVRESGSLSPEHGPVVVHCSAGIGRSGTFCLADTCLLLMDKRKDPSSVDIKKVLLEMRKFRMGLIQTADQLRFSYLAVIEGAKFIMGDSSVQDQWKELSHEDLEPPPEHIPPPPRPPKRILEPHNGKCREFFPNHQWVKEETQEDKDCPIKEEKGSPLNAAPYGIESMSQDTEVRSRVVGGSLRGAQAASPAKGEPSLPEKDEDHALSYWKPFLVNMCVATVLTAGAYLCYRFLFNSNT
The experiment in a line: Inhibition of PTP1B (unknown origin).

Test [6] concerns the target T6, Tyrosine-protein phosphatase non-receptor type 1 (Homo sapiens) (UniProt P18031).
T6 sequence (whole entry): T5 sequence (P18031 whole entry)
The experiment in a line: Inhibition of PTP1B (unknown origin) at 5 ug/ml.

In test [7] the target is Receptor-type tyrosine-protein phosphatase F (Homo sapiens, UniProt P10586). As to the kind of experiment: Inhibition of LAR (unknown origin).
Test [8] addresses Tyrosine-protein phosphatase non-receptor type 6 (Homo sapiens, UniProt P29350). As to the kind of experiment: Inhibition of SHP1 (unknown origin).

Receptor-type tyrosine-protein phosphatase F, sequence (P10586 whole entry): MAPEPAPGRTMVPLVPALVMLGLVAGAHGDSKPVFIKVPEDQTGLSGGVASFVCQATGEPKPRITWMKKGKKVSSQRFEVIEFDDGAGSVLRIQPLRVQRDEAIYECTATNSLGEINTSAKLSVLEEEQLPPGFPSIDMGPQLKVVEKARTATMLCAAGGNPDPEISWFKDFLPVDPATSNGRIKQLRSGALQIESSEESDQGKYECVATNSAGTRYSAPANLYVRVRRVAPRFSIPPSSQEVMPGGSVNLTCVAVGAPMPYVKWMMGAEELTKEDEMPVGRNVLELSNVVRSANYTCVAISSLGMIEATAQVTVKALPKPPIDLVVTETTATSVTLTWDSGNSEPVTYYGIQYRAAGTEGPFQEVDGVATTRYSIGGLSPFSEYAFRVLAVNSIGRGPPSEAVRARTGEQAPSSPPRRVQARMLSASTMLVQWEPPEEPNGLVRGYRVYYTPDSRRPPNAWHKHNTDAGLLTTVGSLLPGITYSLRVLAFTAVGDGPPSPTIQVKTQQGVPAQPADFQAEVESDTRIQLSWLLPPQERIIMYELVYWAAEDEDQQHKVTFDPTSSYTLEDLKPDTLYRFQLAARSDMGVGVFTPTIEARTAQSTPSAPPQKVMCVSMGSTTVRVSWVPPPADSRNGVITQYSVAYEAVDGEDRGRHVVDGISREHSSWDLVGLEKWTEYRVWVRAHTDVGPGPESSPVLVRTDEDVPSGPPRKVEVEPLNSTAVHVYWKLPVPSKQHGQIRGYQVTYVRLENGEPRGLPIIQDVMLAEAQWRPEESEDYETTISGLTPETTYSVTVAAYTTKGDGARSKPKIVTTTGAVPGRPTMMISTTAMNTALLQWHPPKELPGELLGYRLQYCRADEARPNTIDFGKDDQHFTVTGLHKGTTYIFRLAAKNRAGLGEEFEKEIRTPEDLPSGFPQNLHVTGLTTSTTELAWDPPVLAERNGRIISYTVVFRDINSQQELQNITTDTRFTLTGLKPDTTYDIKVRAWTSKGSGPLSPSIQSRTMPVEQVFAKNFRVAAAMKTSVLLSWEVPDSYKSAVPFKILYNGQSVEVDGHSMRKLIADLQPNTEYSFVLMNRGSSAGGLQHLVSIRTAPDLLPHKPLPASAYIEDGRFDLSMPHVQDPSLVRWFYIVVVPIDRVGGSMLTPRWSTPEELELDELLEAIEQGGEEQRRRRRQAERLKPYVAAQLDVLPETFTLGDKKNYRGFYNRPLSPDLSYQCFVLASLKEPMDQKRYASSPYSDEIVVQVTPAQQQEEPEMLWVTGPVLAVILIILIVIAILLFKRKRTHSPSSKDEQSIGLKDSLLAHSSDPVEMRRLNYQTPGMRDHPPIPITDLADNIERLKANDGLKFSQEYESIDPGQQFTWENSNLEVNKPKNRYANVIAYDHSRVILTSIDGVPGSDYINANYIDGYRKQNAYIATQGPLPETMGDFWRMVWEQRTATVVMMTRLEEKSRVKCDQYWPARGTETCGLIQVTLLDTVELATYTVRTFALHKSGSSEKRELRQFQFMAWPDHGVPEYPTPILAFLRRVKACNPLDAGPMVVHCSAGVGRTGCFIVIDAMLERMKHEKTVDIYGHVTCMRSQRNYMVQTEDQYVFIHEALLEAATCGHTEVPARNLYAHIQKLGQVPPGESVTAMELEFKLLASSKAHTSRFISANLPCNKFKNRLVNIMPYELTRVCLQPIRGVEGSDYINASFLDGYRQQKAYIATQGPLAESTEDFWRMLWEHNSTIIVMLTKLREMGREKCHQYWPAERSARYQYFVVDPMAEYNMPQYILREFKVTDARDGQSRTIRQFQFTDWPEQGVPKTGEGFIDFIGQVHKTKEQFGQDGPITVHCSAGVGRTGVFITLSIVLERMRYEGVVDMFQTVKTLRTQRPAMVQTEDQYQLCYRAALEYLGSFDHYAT
Tyrosine-protein phosphatase non-receptor type 6, sequence (P29350 whole entry): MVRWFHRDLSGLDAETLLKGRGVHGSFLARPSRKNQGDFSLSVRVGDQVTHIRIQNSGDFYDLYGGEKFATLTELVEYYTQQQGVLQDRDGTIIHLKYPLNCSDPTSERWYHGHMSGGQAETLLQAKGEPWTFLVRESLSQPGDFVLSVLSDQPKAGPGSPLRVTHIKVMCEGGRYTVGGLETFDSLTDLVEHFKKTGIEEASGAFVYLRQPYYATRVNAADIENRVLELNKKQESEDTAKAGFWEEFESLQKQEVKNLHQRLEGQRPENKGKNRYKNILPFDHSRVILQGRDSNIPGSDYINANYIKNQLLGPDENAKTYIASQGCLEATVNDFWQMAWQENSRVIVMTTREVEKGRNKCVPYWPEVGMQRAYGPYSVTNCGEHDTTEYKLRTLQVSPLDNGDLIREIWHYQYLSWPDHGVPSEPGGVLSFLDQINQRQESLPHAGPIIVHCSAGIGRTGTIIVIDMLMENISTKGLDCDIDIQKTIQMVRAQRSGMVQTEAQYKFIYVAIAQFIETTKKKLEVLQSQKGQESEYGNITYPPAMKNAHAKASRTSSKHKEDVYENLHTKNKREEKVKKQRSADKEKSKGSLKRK

For the compound `Cc1ccccc1C(=O)Nc1nnc(-c2ccc(Oc3ccc([N+](=O)[O-])cc3[N+](=O)[O-])cc2)s1`, the IC50 result in test [1] is “Not Active”; in test [2], “Not Active”; in test [3] it was 6.51 µM; in test [5] it was 8.44 µM; in test [7], “Not Active”; in test [8], “Not Active”. Moreover, the inhibition was 93.7% in test [4] and 84% in test [6].
For `O=C(Nc1nnc(-c2ccc(Oc3ccc([N+](=O)[O-])cc3[N+](=O)[O-])cc2)s1)c1ccc([N+](=O)[O-])cc1`, the IC50 result in test [1] is “Not Active”; in test [2], “Not Active”; in test [3] it was 9.4 µM; in test [5], 15.8 µM; in test [7], “Not Active”; in test [8] it was “Not Active”. Also, the inhibition is 97.7% in test [4] and 81.8% in test [6].
SODIUM ORTHOVANAD: the concentration for half-maximal inhibition (IC50) in test [1] turned out to be 24.1 µg/mL; in test [8], 15.9 µg/mL.
With `COc1cccc(C(=O)Nc2nnc(-c3ccc(Oc4ccc([N+](=O)[O-])cc4)cc3)s2)c1`, the IC50 result in test [1], in test [2], in test [7] and in test [8] was “Not Active” in each case. The inhibition in test [4] came to 2.52%; in test [6] it was 32.1%.
With `O=C(Nc1nnc(-c2ccc(Oc3ccc([N+](=O)[O-])cc3)cc2)s1)c1cccc([N+](=O)[O-])c1`, the 50% inhibitory concentration (IC50) result is “Not Active” in test [1]; “Not Active” in test [2]; 1.83 µM in test [5]; “Not Active” in test [7]; “Not Active” in test [8]. Also, the inhibition in test [4] was found to be 24.2%; in test [6], 94.6%.
In the case of `O=C(Nc1nnc(-c2ccc(Oc3ccc([N+](=O)[O-])cc3[N+](=O)[O-])cc2)s1)c1ccc(Cl)cc1`, the IC50 result in test [1] was “Not Active”; in test [2], “Not Active”; in test [3], 4.44 µM; in test [7] it was “Not Active”; in test [8], “Not Active”. Further, the inhibition in test [4] came to 90.2%; in test [6], 42.3%.
For `O=C(Nc1nnc(-c2ccc(Oc3ccc([N+](=O)[O-])cc3[N+](=O)[O-])cc2)s1)c1ccccc1[N+](=O)[O-]`, the IC50 entry in test [1] was “Not Active”; in test [2] it was “Not Active”; in test [3], 15.8 µM; in test [5], 8.12 µM; in test [7] it was “Not Active”; in test [8], “Not Active”. In addition, the results for the inhibition in test [4] and in test [6] were 88.3% and 87.4%, respectively.
Turning to `COc1ccc(C(=O)Nc2nnc(-c3ccc(Oc4ccc([N+](=O)[O-])cc4[N+](=O)[O-])cc3)s2)cc1`, the IC50 entry is “Not Active” in test [1]; “Not Active” in test [2]; 7.6 µM in test [5]; “Not Active” in test [7]; “Not Active” in test [8]. In addition, the inhibition in test [4] was 28.9%; in test [6] it was 92.9%.
Take `COc1ccccc1C(=O)Nc1nnc(-c2ccc(Oc3ccc([N+](=O)[O-])cc3[N+](=O)[O-])cc2)s1`: the IC50 result in test [1] was “Not Active”; in test [2] it was “Not Active”; in test [5], 3.81 µM; in test [7], “Not Active”; in test [8] it was “Not Active”. In addition, the inhibition in test [4] stood at 17.5%; in test [6], 91.3%.
With `O=C(Nc1nnc(-c2ccc(Oc3ccc([N+](=O)[O-])cc3)cc2)s1)c1ccc(F)cc1`, the concentration for half-maximal inhibition (IC50) entry in test [1] is “Not Active”; in test [2], “Not Active”; in test [5], 20 µM; in test [7] it was “Not Active”; in test [8], “Not Active”. For the same compound, the values for the inhibition in test [4] and in test [6] were 31.7% and 77.1%, respectively.
On to `Cc1ccc(C(=O)Nc2nnc(-c3ccc(Oc4ccc([N+](=O)[O-])cc4)cc3)s2)cc1`, for which the half-inhibitory concentration (IC50) result in test [1] was “Not Active”; in test [2], “Not Active”; in test [5], 19.1 µM; in test [7], “Not Active”; in test [8] it was “Not Active”. Also, the inhibition in test [4] turned out to be 25.8%; in test [6], 68.4%.
On to `O=C(Nc1nnc(-c2ccc(Oc3ccc([N+](=O)[O-])cc3)cc2)s1)c1ccccc1Cl`, for which the IC50 entry in test [1] is “Not Active”; in test [2] it was “Not Active”; in test [5], 13.8 µM; in test [7], “Not Active”; in test [8] it was “Not Active”. The inhibition in test [4] stood at 46.4%; in test [6], 63%.
With `O=C(Nc1nnc(-c2ccc(Oc3ccc([N+](=O)[O-])cc3)cc2)s1)c1cccc(F)c1`, the IC50 entry was “Not Active” in test [1]; “Not Active” in test [2]; 10.5 µM in test [3]; “Not Active” in test [7]; “Not Active” in test [8]. In addition, the inhibition in test [4] was 81.7%; in test [6] it was 37.1%.
In the case of `O=C(Nc1nnc(-c2ccc(Oc3ccc([N+](=O)[O-])cc3)cc2)s1)c1ccccc1[N+](=O)[O-]`, the IC50 entry in test [1] is “Not Active”; in test [2], “Not Active”; in test [5], 9.17 µM; in test [7] it was “Not Active”; in test [8], “Not Active”. In addition, the inhibition in test [4] stood at 13%; in test [6] it was 85%.
`O=C(Cc1ccccc1)Nc1nnc(-c2ccc(Oc3ccc([N+](=O)[O-])cc3)cc2)s1`: the IC50 entry in test [1] was “Not Active”; in test [2] it was “Not Active”; in test [5] it was 12.6 µM; in test [7], “Not Active”; in test [8], “Not Active”. Moreover, the inhibition in test [4] was determined as 43.6%; in test [6], 54.9%.
As to `COc1ccccc1C(=O)Nc1nnc(-c2ccc(Oc3ccc([N+](=O)[O-])cc3)cc2)s1`, the half-maximal inhibitory concentration (IC50) result is “Not Active” in test [1]; “Not Active” in test [2]; 13.1 µM in test [5]; “Not Active” in test [7]; “Not Active” in test [8]. Also, the values for the inhibition in test [4] and in test [6] were 26.1% and 84.8%, respectively.
As for `O=C(Nc1nnc(-c2ccc(Oc3ccc([N+](=O)[O-])cc3[N+](=O)[O-])cc2)s1)c1cccc(Cl)c1`, the IC50 result in test [1] was “Not Active”; in test [2], “Not Active”; in test [5] it was 6.71 µM; in test [7], “Not Active”; in test [8] it was “Not Active”. Further, the inhibition in test [4] is 37%; in test [6], 80.7%.
